Laboratory results taken from US8796323B2, “Defensin-like molecules as novel antimicrobial agents” (University of Maryland, Baltimore, priority 2010, dated 2014).
“Also recorded” adds a separate entry of the source.

How the values were obtained:
[1] = Surface Plasmon Resonance binding of HNP1 peptides and Lipid II; settings: ratio of Kd values
Procedure: Short-chain water-soluble Lipid II containing a lipid tail of three isoprene units was generated and purified essentially as described in Breukink, E., et al., 2003, “Lipid II is an intrinsic component of the pore induced by nisin in bacterial membranes,” J Biol Chem 278:19898-19903.
Typically, M. flavus vesicles (120 μmol lipid-Pi) were incubated together with 500 μmol UDP-GlcNAc, 500 μmol UDP-MurNAC-pentapeptide and 400 μmol farnesyl phosphate in 100 mM Tris-HCl pH 8.0, 5 mM MgCl2. The incubation lasted two hours at room temperature for 3-P. The synthesis of 3-Lipid II was followed using RP-8 reversed phase TLC (Merck) developed in 75% methanol. […]
Surface Plasmon Resonance binding experiments were carried out on a BIAcore T100 system (BIAcore Inc., Piscataway, N.Y.) at 25° C. […] Association and dissociation were assessed for 300 and 600 second, respectively. […] Binding isotherms were analyzed with manufacturer-supplied software for BIAcore T100 and/or GraphPad Prism 4.0.
The inventors used a Surface Plasmon Resonance (SPR) approach to determine the binding of HNP1 to Lipid II directly. Initial binding of L-HNP1, D-HNP1 and linear HNP1 to soluble Lipid II immobilized on the chip surface was determined. […]

[2] = ANTS/DPX leakage assay from large unilamellar vesicles
Procedure: Large unilamellar vesicles (LUVs) with the low molecular weight fluorophore/quencher pair (ANTS/DPX) encapsulated were prepared using the standard extrusion method. Specifically, phospholipids were dissolved in chloroform at a desired molar ratio, dried as a film by solvent evaporation. After removal of residual solvent, the lipid film was hydrated in the fluorescent solution containing 5 mM HEPES, 12.5 mM ANTS, 45 mM DPX, and 20 mM NaCl, pH 7.0, freeze-thawed for 10 cycles and extruded 10 times through 0.4-μm polycarbonate membranes. LUVs were separated from unencapsulated materials by gel filtration chromatography using a Sepharose CL-4B column eluted with 5 mM HEPES, 100 mM NaCl, pH 7.4 (high-salt). For leakage assays in a low-salt buffer, purified vesicles were further diluted with 5 mM HEPES containing 10 mM NaCl, pH 7.4.
Leakage of ANTS from LUVs, monitored on a LS-55 Perkin Elmer luminescence spectrometer, was characterized by an increase in fluorescence, which was quenched by DPX when encapsulated together inside liposomes (Ellens, H., et al., 1985, “H+- and Ca2+-induced fusion and destabilization of liposomes,” Biochemistry 24:3099-3106). 270 μl ANTS/DPX-encapsulated LUVs (in either high-salt or low-salt buffers) were added to each well of a 96-well plate to a final lipid concentration of 600 μM. 30 μl H2O was added to the first well of each row as a blank, and 30 μl 2.5% (v/v) Triton X-100 to the last (twelfth) well as the control for 100% leakage. Upon addition of 30 μl of a twofold dilution series of defensin, the fluorescence signal was recorded at 515 nm with an excitation wavelength of 353 nm, 10 nm bandwidths and a 390 nm cut-off filter in the emission path. Percent leakage is expressed as: % leakage=((Ft−F0)/(F100−F0))×100 where Ft is the fluorescence determined at different time points after addition of defensin, F0 is the background fluorescence of the “blank” cells, and F100 is the fluorescence of the control cells containing 0.25% Triton X-100. Lipid II Purification
Defensins are believed to kill bacteria by permeabilizing the membrane, causing leakage of intracellular content and eventually cell lysis and death. The present inventors tested the ability of six human α-defensins to induce leakage of fluorophores encapsulated in LUVs (See FIG. 1). […] (A) At high salt concentration (5 mM HEPES, 100 mM NaCl, pH 7.4). (B) At low salt concentration (5 mM HEPES, 10 mM NaCl, pH 7.4). LUVs were 250 nm in diameter and 600 μM (phospholipids) in concentration.
(A) Effects of surface charge on HNP1-induced leakage from LUVs of four different compositions: POPC (circle, surface charge=0), POPC/POPG=3:2 (square, surface charge=−0.4), POPC/POPG=2:3 (triangle, surface charge=−0.6), and POPG (diamond, surface charge=−1). (B) LUV (POPG:DPPC 1:1) leakage induced by L-HNP1 (circles) or D-HNP1 (squares). A two-fold dilution series of HNP1 peptides from 0.19 to 100 μg/ml was incubated with 600 μM LUVs for one hour before readings were taken. Error bars indicate the standard error in triplicate experiments.

S. aureus = settings: literature (Ericksen 2005; Wei 2009); cited from earlier work

## HNP1: α-defensin Human Neutrophil Peptide 1, chemically synthesized and folded
[1]
  affinity for Lipid II, L-HNP1 relative to D-HNP1: approximately five times higher affinity than the D-peptide
[2]; DPPC/POPG (1:1) LUVs, FIG. 2B
  leakage from LUVs, L- versus D-enantiomer: equally efficiently
[2]; POPC LUVs, surface charge 0, 0.19 to 100 μg/ml, regardless of incubation time
  HNP1-induced leakage from LUVs composed solely of neutral lipid POPC: resistant to the attack by HNP1 at all concentrations used
[2]; POPC:POPG 1:0, 3:2, 2:3, 0:1, POPG 0, 40%, 60%, 100%
  HNP1-induced leakage from LUVs as POPG content increases: increasingly pronounced
[2]; POPG LUVs, panel of six human α-defensins, FIG. 1
  membrane activity (leakage of ANTS-DPX from POPG LUVs): reduced
S. aureus
  bactericidal activity against S. aureus / Gram-positive bacteria: potently bactericidal; also recorded: kills Gram-positive bacteria very efficiently
